Data as given in PubChem BioAssay AID2305 (GlaxoSmithKline (GSK), 2010).

test system: P. falciparum 3D7 growth, pLDH absorbance; experiment: blood-stage malaria parasite growth potency – strain 3D7, dose response (AID 2305)

SMILES | IC50 [nM]
COc1ccc2cc(C(c3nnnn3CC3CCCO3)N3CCc4ccccc43)c(=O)[nH]c2c1 (centres undefined) | 800
COc1cc2nc(N3CCC(CNC(=O)c4ccc(-c5ccc(C(=O)N(C)C)cc5)cc4)CC3)nc(N)c2cc1OC | 750
COc1cc(CNCCC(C)C)ccc1OCc1cccc(COc2ccc(CNCCC(C)C)cc2OC)c1 | 490
O=C(Nc1ccc(OC2CCN(Cc3ccc(F)cc3)CC2)c(Cl)c1)c1ccoc1 | 1180
NC(N)=Nc1nc(CCCCCCCCc2csc(N=C(N)N)n2)cs1 | 600
COc1cc(CCON2C(N)=NC(N)=NC2(C)C)cc(OC)c1OC | 50
Cc1ccc(O)c(C(=O)c2cnc3c(c2)c(-c2ccc(F)cc2)c(C#N)c(=O)n3C)c1 | 970
COc1ccc(O)c(C(=O)c2cnc3c(c2)c(-c2ccc(F)cc2)c(C#N)c(=O)n3C)c1 | 790
COc1cc2nc(N[C@@H](CO)c3ccccc3)nc(NCc3ccccc3)c2cc1OC | 660
CC(O)C1CCCCN1C(=O)c1cccc(-c2ccc(-c3nc4ccc(F)cc4[nH]3)cc2)c1 (centres undefined) | 740
O=C(Nc1ccc(NC2=NCCN2)cc1)Nc1ccc(NC2=NCCN2)cc1 | 850
Cc1cc(Nc2cccc(Cl)c2)nc2ccc(NC(=O)c3ccc(=O)[nH]c3)cc12 | 1000
Cc1cccc2[nH]c(-c3ccc(-c4cccc(CN5CCN(CCO)CC5)c4)cc3)nc12 | 730
O=C(c1cccc(Cl)c1)N1CCN(c2ccc([N+](=O)[O-])c(NC3CC3)c2)CC1 | 870
COc1cccc(-c2cccc(-c3ccc(NC(=O)c4ccc([N+](=O)[O-])o4)cc3)n2)c1 | 520
COc1cc2sc(=NC(=O)c3cccc([N+](=O)[O-])c3)n(C)c2cc1OC | 720
COc1c(C2CCN(CCCCNC(=O)c3ccc(-c4ccc(Cl)cc4)c(O)c3)CC2)ccc2c1CCCC2 | 230
CN1CCc2cc(NC(=O)c3cc4ccccc4s3)cc(-c3ccccc3)c2CC1 | 890
Cc1ccc(CN2CCN(c3cc4c(cc3Cl)CCN4C(=O)Cc3ccc(NC(=O)c4ccc(C(F)(F)F)cc4)cc3)CC2)cc1 | 940
Cc1ccccc1CNc1noc(-c2c(F)cccc2Cl)n1 | 720
Cc1nc2c(-n3cc(Cn4ccnc4)c4ccccc43)ncnc2n1-c1ccc(Cl)cc1Cl | 990
Cn1cc(CCNc2ccnc(NCCc3coc4ccccc34)n2)c2ccccc21 | 1060
Cc1ccc(Nc2nc3cc(N(C)c4ccnc(Nc5cccc(CS(C)(=O)=O)c5)n4)ccc3o2)cc1 | 970
NS(=O)(=O)c1cccc(Nc2nccc(-c3cnn4ncccc34)n2)c1 | 660
Clc1ccc(OC2CCC(Cn3ccnc3)(c3ccc(Cl)cc3Cl)CC2)c(Cl)c1 (centres undefined) | 800

SMILES | IC50 [nM]
CN1CCN(c2ccnc3ccc(NC(=O)Cc4ccc(-c5ccncc5)c5ccccc45)cc23)CC1 | 200
CN1CCC(NCc2ccc(-c3ccc(S(=O)(=O)NCc4ccccc4)c(F)c3)cc2)CC1 | 610
COc1ccc(NS(=O)(=O)c2cccc(C(=O)Nc3ccc(C(F)(F)F)cc3)c2)cc1N1CCN(CC(C)C)CC1 | 840
Cc1cc(N(C)CCCN(C)C)nc(Nc2ccc(Cl)cc2)n1 | 1020
N#Cc1ccc(-c2ccc3nc(N4CCCN(C5CCC5)CC4)ccc3c2)cc1 | 1500
N#Cc1cccc(C(=O)Nc2cccc(-c3ccc(C(=O)Nc4cccnc4)cc3)c2)c1 | 690
CNC(=C[N+](=O)[O-])NCCSCc1cc(C)c(CN(C)C)s1 | 350
CC(C)(C)c1nn(-c2ccccc2)c2[nH]c(=O)c(CNC3CCCCC3)cc12 | 1250
CC(C)NCc1cccc(-c2ccc(NC(=O)c3ccc(F)cc3)cc2)c1 | 850
COc1ccc(CNC2CCN(C)CC2)cc1-c1ccc(S(=O)(=O)NCCc2ccccn2)s1 | 620
O=C(CC1CCCC1)N(Cc1ccc(-c2ccc(CNC3Cc4ccccc4C3)cc2)cc1)CC1CCCCN1 (centres undefined) | 1060
COc1cc(Nc2nccc(NCC(O)c3ccc(C(F)(F)F)cc3)n2)cc(OC)c1OC (centres undefined) | 920
Cc1cccc(Cn2ccc3c4c(N)nc(N)nc4ccc32)c1 | 10
Cc1ccccc1CNc1ccc2nc(N)nc(N)c2c1 | 170
COc1ccc(C[C@H](N)C(=O)N[C@H]2[C@@H](O)[C@H](n3cnc4c(N(C)C)ncnc43)O[C@@H]2CO)cc1 | 300
COc1ccc(C=NNc2ccnc3cc(F)c(C)cc23)c2ccccc12 | 770
CC(C)N1CCN(C(CN2CCN(CCCOc3cccc(-c4ccccc4)c3)CC2)c2ccc(F)cc2)CC1 (centres undefined) | 890
FC(F)(F)c1ccc2nc(-c3ccc(-c4cccc(CN5CCCCC5)c4)cc3)[nH]c2c1 | 140
Cc1cccc2[nH]c(-c3cccc(-c4ccc(CNCc5cccc(N)c5)cc4)c3)nc12 | 260
Cc1cc(CN2CC[C@H](NC(=O)c3ccc(Cl)c(Cl)c3)C2)ccc1OCCN1CCCC1 | 1160
COc1ccc(-c2ccc(NC(=O)c3ccc(Cl)cc3)cc2)cc1CN(C)CCN(C)C | 670
Cc1[nH]c2cc(Cl)ccc2c1C1=CCN(CCN2CCOc3c(Br)cccc3C2=O)CC1 | 870
CSc1c(CNCCCNc2cc(=O)c3ccccc3[nH]2)[nH]c2ccccc12 | 1120
COc1ccc2nccc(N3CCC(CCNCc4cc5c(cn4)OCCO5)CC3)c2n1 | 220
